One experiment has as its target Opiate (OP3, MOP) (Homo sapiens, UniProt P35372). The experiment can be described thus: Off-target panel, Opiate. It is filed as binding. The note with it: Conc. 3 μM.
The next experiment addresses Muscarinic M2 (Homo sapiens, UniProt P08172). The experiment can be described thus: Off-target panel, Muscarinic M2. It is filed as binding. The note with it: Conc. 3 μM.
The next experiment concerns the target T1, NMDAR (1A/2B) (Homo sapiens, UniProt Q05586+Q13224).
T1 construct: CEREP (CRO panel)
The experiment in a line: Safety47 panel ion channel NMDAR (1A/2B). It is filed as cell-based. The note with it: 3 μM. An excerpt:
(§1) LOC14 was also submitted for testing in CEREP's Safety47 panel. CEREP is a CRO specializing in preclinical research, discovery and development of new pharmaceutical drugs.

Another experiment addresses Adrenergic α1A (Rattus norvegicus, UniProt P43140). The experiment can be described thus: Off-target panel, Adrenergic α1A. It counts as binding. The settings on record: Conc. 3 μM.
For a further experiment, the target named is T2, MAOA (Homo sapiens, UniProt P21397).
T2 construct: CEREP (CRO panel)
T2 sequence (P21397 whole entry): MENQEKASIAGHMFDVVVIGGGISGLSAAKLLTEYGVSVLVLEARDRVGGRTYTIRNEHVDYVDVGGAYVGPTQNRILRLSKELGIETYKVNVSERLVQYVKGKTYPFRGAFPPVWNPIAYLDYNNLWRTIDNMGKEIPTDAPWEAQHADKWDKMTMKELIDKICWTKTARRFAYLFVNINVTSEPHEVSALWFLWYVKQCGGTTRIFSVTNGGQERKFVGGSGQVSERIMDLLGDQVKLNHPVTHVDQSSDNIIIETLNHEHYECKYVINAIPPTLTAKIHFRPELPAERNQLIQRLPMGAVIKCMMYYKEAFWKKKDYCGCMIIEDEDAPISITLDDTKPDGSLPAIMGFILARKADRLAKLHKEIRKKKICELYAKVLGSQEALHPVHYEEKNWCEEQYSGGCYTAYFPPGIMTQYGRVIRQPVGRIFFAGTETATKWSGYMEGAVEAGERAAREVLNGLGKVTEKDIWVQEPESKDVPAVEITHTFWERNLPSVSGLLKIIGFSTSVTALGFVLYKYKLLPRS
The experiment can be described thus: Safety47 panel non-kinase enzyme MAOA. It is filed as biochemical. The note with it: Inhibitor mode; 3 μM.
Excerpt: as §1

T1 sequence (Q13224 27-1484, other chains not shown): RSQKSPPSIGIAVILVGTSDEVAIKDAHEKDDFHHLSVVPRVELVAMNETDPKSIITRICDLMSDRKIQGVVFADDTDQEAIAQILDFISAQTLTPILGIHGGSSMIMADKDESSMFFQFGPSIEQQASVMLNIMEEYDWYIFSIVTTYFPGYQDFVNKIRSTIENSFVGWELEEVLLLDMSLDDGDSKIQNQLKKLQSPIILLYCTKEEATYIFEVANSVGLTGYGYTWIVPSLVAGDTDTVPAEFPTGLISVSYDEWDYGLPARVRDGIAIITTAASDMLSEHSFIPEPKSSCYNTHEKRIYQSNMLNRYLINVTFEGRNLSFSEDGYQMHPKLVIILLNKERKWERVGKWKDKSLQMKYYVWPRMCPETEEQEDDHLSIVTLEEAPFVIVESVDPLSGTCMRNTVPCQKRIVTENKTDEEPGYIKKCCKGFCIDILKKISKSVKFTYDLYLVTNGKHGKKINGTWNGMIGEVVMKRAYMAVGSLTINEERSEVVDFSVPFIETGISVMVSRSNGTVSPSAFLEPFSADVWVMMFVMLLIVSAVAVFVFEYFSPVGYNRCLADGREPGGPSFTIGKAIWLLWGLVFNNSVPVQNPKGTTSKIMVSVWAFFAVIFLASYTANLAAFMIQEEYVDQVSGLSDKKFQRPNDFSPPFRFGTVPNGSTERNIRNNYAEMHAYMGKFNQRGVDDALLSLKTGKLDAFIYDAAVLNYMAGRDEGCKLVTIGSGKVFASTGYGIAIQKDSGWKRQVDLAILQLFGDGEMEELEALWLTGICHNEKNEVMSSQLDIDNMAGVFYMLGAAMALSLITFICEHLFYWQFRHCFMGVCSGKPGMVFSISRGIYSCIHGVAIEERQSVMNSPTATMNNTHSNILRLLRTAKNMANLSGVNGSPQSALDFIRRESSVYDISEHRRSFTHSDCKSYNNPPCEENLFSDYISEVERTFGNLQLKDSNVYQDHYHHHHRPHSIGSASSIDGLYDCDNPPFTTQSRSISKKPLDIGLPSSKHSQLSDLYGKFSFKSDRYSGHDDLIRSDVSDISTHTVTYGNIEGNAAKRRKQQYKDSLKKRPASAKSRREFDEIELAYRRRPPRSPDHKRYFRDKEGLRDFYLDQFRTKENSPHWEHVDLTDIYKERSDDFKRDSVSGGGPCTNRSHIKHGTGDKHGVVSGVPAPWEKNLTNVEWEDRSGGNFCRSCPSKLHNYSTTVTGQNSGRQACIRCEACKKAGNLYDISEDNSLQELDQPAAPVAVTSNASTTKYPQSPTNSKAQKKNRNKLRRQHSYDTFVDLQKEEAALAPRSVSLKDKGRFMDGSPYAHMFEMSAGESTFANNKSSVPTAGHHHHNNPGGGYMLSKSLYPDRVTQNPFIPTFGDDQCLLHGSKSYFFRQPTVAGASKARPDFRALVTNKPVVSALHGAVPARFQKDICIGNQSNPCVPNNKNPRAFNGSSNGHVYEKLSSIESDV
Sequence of Adrenergic α1A (P43140 whole entry): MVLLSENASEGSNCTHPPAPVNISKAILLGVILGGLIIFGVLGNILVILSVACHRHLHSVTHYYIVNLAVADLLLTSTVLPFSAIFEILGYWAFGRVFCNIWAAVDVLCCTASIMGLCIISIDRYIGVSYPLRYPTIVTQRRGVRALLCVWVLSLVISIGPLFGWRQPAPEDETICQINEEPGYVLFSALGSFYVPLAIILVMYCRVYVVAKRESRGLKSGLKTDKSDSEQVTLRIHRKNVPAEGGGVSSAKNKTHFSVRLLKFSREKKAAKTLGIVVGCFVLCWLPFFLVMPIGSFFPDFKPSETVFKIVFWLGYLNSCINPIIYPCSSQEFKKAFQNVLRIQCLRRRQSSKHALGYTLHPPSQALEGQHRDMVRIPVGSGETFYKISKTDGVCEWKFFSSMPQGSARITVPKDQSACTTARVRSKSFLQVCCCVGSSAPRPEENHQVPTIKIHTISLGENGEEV
Sequence of Muscarinic M2 (P08172 whole entry): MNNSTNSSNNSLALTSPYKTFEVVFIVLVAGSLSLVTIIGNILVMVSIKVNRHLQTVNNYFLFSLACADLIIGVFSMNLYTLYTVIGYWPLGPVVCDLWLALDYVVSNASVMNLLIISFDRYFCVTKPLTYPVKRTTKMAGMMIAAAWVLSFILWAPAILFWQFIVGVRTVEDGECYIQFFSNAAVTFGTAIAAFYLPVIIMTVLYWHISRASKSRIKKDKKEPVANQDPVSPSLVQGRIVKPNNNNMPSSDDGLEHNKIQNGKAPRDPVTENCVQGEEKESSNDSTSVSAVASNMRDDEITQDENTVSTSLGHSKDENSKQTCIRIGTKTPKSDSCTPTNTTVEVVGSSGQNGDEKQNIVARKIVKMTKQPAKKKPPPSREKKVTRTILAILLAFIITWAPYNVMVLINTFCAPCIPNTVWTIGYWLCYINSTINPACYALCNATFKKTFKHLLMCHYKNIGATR
Sequence of Opiate (OP3, MOP) (P35372 whole entry): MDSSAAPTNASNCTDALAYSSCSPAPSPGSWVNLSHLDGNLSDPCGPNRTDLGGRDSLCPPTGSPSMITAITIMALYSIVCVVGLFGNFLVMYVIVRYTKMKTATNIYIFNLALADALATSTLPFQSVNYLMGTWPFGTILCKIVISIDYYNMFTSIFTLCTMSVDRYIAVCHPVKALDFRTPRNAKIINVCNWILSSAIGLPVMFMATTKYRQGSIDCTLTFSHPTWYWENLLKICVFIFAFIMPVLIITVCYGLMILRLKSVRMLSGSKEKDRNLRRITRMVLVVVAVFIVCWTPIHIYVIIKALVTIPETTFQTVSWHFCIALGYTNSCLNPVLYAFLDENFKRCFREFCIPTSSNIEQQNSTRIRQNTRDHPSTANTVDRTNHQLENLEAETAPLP

In general, inhibition refers to the change of the read-out against control, counted positive when it falls. On to `O=C(C1CC1)N1CCN(Cn2sc3ccccc3c2=O)CC1` [LOC14], for which the inhibition at 3 µM at Opiate (OP3, MOP) is -1%; against Muscarinic M2 it was -3%; against Adrenergic α1A, -14%. Further, the Average was 0.0 at NMDAR (1A/2B) (Blocker mode), 1.7 at NMDAR (1A/2B) (Opener mode) and 9.9 on MAOA.

The values above are taken from patent publication US20220380383A1, “NEUROPROTECTIVE PDI MODULATING SMALL MOLECULES AND METHODS OF USE THEREOF” (THE TRUSTEES OF COLUMBIA UNIVERSITY IN THE CITY OF NEW YORK, priority 2018, published 2022).
